Measured values: ChEMBL document CHEMBL1201862, “PubChem BioAssay data set” (2004)
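Method: 48-hour compound exposure of cells in 96-well plates, five concentrations, linear interpolation of endpoints. GI50 = concentration required for 50% inhibition of growth.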 The source made the active and inactive calls. No stated cut-off is given here; in the data, active = GI50 up to about 1.1 µM and inactive = higher.

Tests used:
Test in all cases: inhibition of tumour cell growth, NCI panel, 48 h
[1] = tested on: 786-0
[2] = tested on: A498
[3] = tested on: EKVX
[4] = tested on: HCC 2998
[5] = tested on: HOP-62
[6] = tested on: HT-29
[7] = tested on: LOX IMVI
[8] = tested on: MCF7
[9] = tested on: MDA-MB-435
[10] = tested on: NCI-H226
[11] = tested on: NCI-H23
[12] = tested on: NCI-H522
[13] = tested on: OVCAR-4
[14] = tested on: RPMI-8226
[15] = tested on: SF-295
[16] = tested on: SK-MEL-28
[17] = tested on: SNB-19
[18] = tested on: SNB-75
[19] = tested on: UACC-257
[20] = tested on: UACC-62

Structure (SMILES)	GI50 [1]	GI50 [2]	GI50 [3]	GI50 [4]	GI50 [5]	GI50 [6]	GI50 [7]	GI50 [8]	GI50 [9]	GI50 [10]	GI50 [11]	GI50 [12]	GI50 [13]	GI50 [14]	GI50 [15]	GI50 [16]	GI50 [17]	GI50 [18]	GI50 [19]	GI50 [20]
Clc1nc(Cl)nc(NC23CC4CC(CC(C4)C2)C3)n1	17.3 µM (inactive)	> 43.4 µM (inactive)	19.5 µM (inactive)	20.3 µM (inactive)	17.7 µM (inactive)	17.9 µM (inactive)	13.4 µM (inactive)	32.1 µM (inactive)	16.2 µM (inactive)	21 µM (inactive)	18.5 µM (inactive)	16.7 µM (inactive)	17.7 µM (inactive)	12 µM (inactive)	19.7 µM (inactive)	19.6 µM (inactive)	21.4 µM (inactive)	17.5 µM (inactive)	17.3 µM (inactive)	17.9 µM (inactive)
C(=N\NC1=NCCN1)/c1cccc2cc3ccncc3nc12	1.95 µM (inactive)	11.6 µM (inactive)	2.86 µM (inactive)	5.71 µM (inactive)	6.22 µM (inactive)	1.71 µM (inactive)	1.73 µM (inactive)	3.16 µM (inactive)	2.49 µM (inactive)	8.28 µM (inactive)	11.5 µM (inactive)	3.33 µM (inactive)	3.33 µM (inactive)	1.93 µM (inactive)	3.04 µM (inactive)	10.1 µM (inactive)	9.53 µM (inactive)	0.259 µM (active)	9.89 µM (inactive)	3.43 µM (inactive)
C=CC1(CC[C@]2(c3ccc(OC)c(OC)c3)C=[N+]([O-])O[C@H](O[C@@H]3CCCC[C@H]3C(C)(C)c3ccccc3)C2)OCC(C)(C)CO1	11.9 µM (inactive)	> 45 µM (inactive)	12.7 µM (inactive)	16.1 µM (inactive)	14.7 µM (inactive)	9.79 µM (inactive)	10.5 µM (inactive)	3.65 µM (inactive)	11.5 µM (inactive)	19.9 µM (inactive)	16.2 µM (inactive)	3.11 µM (inactive)	11.3 µM (inactive)	2.34 µM (inactive)	22.1 µM (inactive)	19.9 µM (inactive)	21.9 µM (inactive)	9.62 µM (inactive)	18.8 µM (inactive)	14 µM (inactive)
CCOC(=O)c1cc(-n2nnc3ccccc32)cn1C	> 10 µM (inactive)	> 10 µM (inactive)	> 10 µM (inactive)	> 10 µM (inactive)	> 10 µM (inactive)	> 10 µM (inactive)	> 10 µM (inactive)	> 10 µM (inactive)	> 10 µM (inactive)	> 10 µM (inactive)	> 10 µM (inactive)	> 10 µM (inactive)	> 10 µM (inactive)	> 10 µM (inactive)	> 10 µM (inactive)	> 10 µM (inactive)	> 10 µM (inactive)	8.59 µM (inactive)	> 10 µM (inactive)	> 10 µM (inactive)
